Test results: patent US20240270821A1, “GIP/GLP1/GCG TRI-RECEPTOR AGONISTS AND USES THEREOF” (priority 2023, published 2024)
Read-outs that look alike come from different tables or passages of the source. Starred links: 1 amine or outer side, 2 acyl side, 3 side chain; linkers in the order of their positions; H or OH if unused. Non-standard residues stand in square brackets, D forms with d. Groups on a side chain read outwards from the residue. No end group written: not given here. *: point of attachment. C18 diacid = O=C(O)CCCCCCCCCCCCCCCCC(=O)*; αMePhe(2-F) = C[C@](N)(Cc1ccccc1F)C(=O)O; γGlu = O=C(O)[C@H](CCC(=O)[*:2])N[*:1]; αMe4Pal = C[C@](N)(Cc1ccncc1)C(=O)O; αMeY = C[C@](N)(Cc1ccc(O)cc1)C(=O)O; 4Pal = N[C@@H](Cc1ccncc1)C(=O)O; αMeL = CC(C)C[C@](C)(N)C(=O)O; Orn = NCCC[C@H](N)C(=O)O; Dab = NCC[C@H](N)C(=O)O; AEEA = NCCOCCOCC(=O)O; Aib = CC(C)(N)C(=O)O

Experiments:
Assay type in all cases: cell-based
hGcgR = hGcgR (Homo sapiens, UniProt P47871); assay: Functional cAMP activation in the presence of 0.1% casein (no HSA); details: read-out: Relative cAMP EC50, hGcgR;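 further: intracellular cAMP rise after 30 min at 37 °C, read by HTRF against a cAMP standard curve, scaled from buffer only (0%) to maximal control ligand response (100%)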
hGIPR [1] = target: T1, hGIPR (Homo sapiens, UniProt P48546); assay: Functional cAMP activity in the presence of 1% HSA; details: read-out: cAMP Rel EC50, hGIPR
T1 sequence (P48546 22-466): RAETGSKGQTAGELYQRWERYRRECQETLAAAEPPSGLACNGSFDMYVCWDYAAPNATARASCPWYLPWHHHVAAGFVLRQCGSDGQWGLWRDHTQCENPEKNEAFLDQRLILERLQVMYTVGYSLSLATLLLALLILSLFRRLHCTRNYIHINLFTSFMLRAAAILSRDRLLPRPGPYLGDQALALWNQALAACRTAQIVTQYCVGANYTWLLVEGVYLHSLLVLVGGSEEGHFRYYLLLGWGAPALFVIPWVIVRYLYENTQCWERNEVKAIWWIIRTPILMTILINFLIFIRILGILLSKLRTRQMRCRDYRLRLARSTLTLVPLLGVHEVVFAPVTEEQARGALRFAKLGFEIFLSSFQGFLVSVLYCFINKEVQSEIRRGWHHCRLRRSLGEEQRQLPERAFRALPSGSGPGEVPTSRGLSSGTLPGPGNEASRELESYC

hGLP-1R [2] = target: T2, hGLP-1R (Homo sapiens, UniProt P43220); assay: Functional cAMP activation in the presence of 0.1% casein (no HSA); details: read-out: Relative cAMP EC50, hGLP-1R;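 further: intracellular cAMP rise after 30 min at 37 °C read by HTRF, normalized between buffer only (0%) and maximal control ligand (100%), four-parameter variable-slope fit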
human GcgR = human GcgR (Homo sapiens, UniProt P47871); assay: Functional cAMP activity in the presence of 1% HSA; details: read-out: cAMP Rel EC50, hGcgR
hGIPR [3] = target: T1, hGIPR; assay: Functional cAMP activation in the presence of 0.1% casein (no HSA); details: read-out: Relative cAMP EC50, hGIPR;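 further: intracellular cAMP rise after 30 min at 37 °C read by HTRF against a standard curve, scaled between buffer alone (0%) and top control ligand concentration (100%), four-parameter fit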
hGLP-1R [4] = target: T2, hGLP-1R; assay: Functional cAMP activity in the presence of 1% HSA; details: read-out: cAMP Rel EC50, hGLP-1R
[5] = in the presence of 0.1% casein (no HSA), geometric mean
[6] = HEK-293 clonal cell line, in the presence of 1% HSA, geometric mean of relative EC50

Sequence of human GcgR (P47871 26-477): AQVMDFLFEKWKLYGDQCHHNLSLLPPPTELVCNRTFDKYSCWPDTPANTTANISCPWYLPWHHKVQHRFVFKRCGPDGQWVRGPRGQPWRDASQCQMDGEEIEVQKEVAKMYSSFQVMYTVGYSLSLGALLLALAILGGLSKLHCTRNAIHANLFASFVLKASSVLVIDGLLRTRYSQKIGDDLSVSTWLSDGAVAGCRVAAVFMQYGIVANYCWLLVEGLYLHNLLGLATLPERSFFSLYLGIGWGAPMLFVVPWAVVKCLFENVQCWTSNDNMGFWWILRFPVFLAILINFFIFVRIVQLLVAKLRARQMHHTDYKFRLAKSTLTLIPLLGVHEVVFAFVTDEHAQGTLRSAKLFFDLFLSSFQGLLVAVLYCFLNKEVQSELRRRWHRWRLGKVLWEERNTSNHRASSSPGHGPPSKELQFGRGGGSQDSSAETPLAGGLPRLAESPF
Sequence of hGcgR (P47871 26-477): as above
T2 sequence (P43220 24-463): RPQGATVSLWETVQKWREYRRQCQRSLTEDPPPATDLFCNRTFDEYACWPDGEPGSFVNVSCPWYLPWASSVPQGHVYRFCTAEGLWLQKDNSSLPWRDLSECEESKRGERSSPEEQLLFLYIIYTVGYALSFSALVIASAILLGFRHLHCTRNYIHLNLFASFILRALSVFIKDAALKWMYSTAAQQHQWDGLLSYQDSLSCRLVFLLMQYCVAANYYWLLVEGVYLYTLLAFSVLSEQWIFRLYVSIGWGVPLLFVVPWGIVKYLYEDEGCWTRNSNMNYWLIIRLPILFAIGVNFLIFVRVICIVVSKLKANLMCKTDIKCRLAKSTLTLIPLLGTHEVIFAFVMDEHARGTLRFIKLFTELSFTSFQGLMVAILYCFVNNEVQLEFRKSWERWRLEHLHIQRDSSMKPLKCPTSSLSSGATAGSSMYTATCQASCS

Row | Compound | EC50 (hGcgR; [5]) [nM] | EC50 (hGIPR [1]; [6]) [nM] | EC50 (hGLP-1R [2]; [5]) [nM] | EC50 (human GcgR; [6]) [nM] | EC50 (hGIPR [3]; [5]) [nM] | EC50 (hGIPR [1]) [nM] | EC50 (human GcgR) [nM] | EC50 (hGLP-1R [4]) [nM] | EC50 (hGcgR) [nM] | EC50 (hGLP-1R [2]) [nM] | EC50 (hGIPR [3]) [nM]
1 | H-Y[Aib]QGTFTSDFS[Orn][αMeL]LDKK([γGlu-γGlu-C18 diacid])AQ[Aib]AFIEYLLAGGPSSGAPPPEGSEE-NH2 [Example 1051] | 10.3 | 32.6 | 8.3 | 1800 | 0.172 |  |  |  |  |  | 
2 | H-Y[Aib]QGTFTSD[4Pal]SQ[αMeL]LD[Orn]K([Glu-γGlu-C18 diacid])AQ[αMe4Pal]AFIEYLLAGGPSSGAPPPSGSEE-NH2 [Example 1057] | 5.29 |  | 5.16 |  | 0.128 | 25.9 | 2780 |  |  |  | 
3 | CC[C@H](C)[C@H](NC(=O)[C@H](CO)NC(=O)[C@H](Cc1ccc(O)cc1)NC(=O)[C@H](CC(=O)O)NC(=O)[C@H](CO)NC(=O)[C@@H](NC(=O)[C@H](Cc1ccccc1)NC(=O)[C@@H](NC(=O)CNC(=O)[C@H](CCC(=O)O)NC(=O)[C@H](C)NC(=O)[C@@H](N)Cc1ccc(O)cc1)[C@@H](C)O)[C@@H](C)CC)C(=O)N[C@@H](C)C(=O)N[C@@H](CCSC)C(=O)N[C@@H](CC(=O)O)C(=O)N[C@@H](CCCCN)C(=O)N[C@H](C(=O)N[C@@H](Cc1c[nH]cn1)C(=O)N[C@@H](CCC(N)=O)C(=O)N[C@@H](CCC(N)=O)C(=O)N[C@@H](CC(=O)O)C(=O)N[C@@H](Cc1ccccc1)C(=O)N[C@H](C(=O)N[C@@H](CC(N)=O)C(=O)N[C@@H](Cc1c[nH]c2ccccc12)C(=O)N[C@@H](CC(C)C)C(=O)N[C@@H](CC(C)C)C(=O)N[C@@H](C)C(=O)N[C@@H](CCC(N)=O)C(=O)N[C@@H](CCCCN)C(=O)NCC(=O)N[C@@H](CCCCN)C(=O)N[C@@H](CCCCN)C(=O)N[C@@H](CC(N)=O)C(=O)N[C@@H](CC(=O)O)C(=O)N[C@@H](Cc1c[nH]c2ccccc12)C(=O)N[C@@H](CCCCN)C(=O)N[C@@H](Cc1c[nH]cn1)C(=O)N[C@@H](CC(N)=O)C(=O)N[C@H](C(=O)N[C@H](C(=O)N[C@@H](CCC(N)=O)C(N)=O)[C@@H](C)O)[C@@H](C)CC)C(C)C)[C@@H](C)CC [hGIP 1-42 amide] | > 99.5 |  |  |  |  |  | > 9950 |  |  |  | 
4 | CC[C@H](C)[C@H](NC(=O)[C@H](CC(C)C)NC(=O)[C@H](Cc1ccc(O)cc1)NC(=O)[C@H](CCC(=O)O)NC(=O)[C@@H](NC(=O)[C@H](Cc1ccccc1)NC(=O)[C@H](C)NC(=O)[C@](C)(Cc1ccncc1)NC(=O)[C@H](CCC(N)=O)NC(=O)[C@H](C)NC(=O)[C@H](CCCCNC(=O)COCCOCCNC(=O)CC[C@H](NC(=O)CCCCCCCCCCCCCCCCC(=O)O)C(=O)O)NC(=O)[C@H](CCCCN)NC(=O)[C@H](CC(=O)O)NC(=O)[C@H](CC(C)C)NC(=O)[C@](C)(CC(C)C)NC(=O)[C@H](CCC(N)=O)NC(=O)[C@H](CO)NC(=O)[C@H](Cc1ccncc1)NC(=O)[C@H](CC(=O)O)NC(=O)[C@H](CO)NC(=O)[C@@H](NC(=O)[C@H](Cc1ccccc1)NC(=O)[C@@H](NC(=O)CNC(=O)[C@H](CCC(N)=O)NC(=O)C(C)(C)NC(=O)[C@@H](N)Cc1ccc(O)cc1)[C@@H](C)O)[C@@H](C)O)[C@@H](C)CC)C(=O)N[C@@H](CCC(=O)O)C(=O)NCC(=O)NCC(=O)N[C@@H](CCC(=O)O)C(=O)N[C@@H](CO)C(=O)N[C@@H](CO)C(=O)NCC(=O)N[C@@H](C)C(=O)N1CCC[C@H]1C(=O)N1CCC[C@H]1C(=O)N1CCC[C@H]1C(=O)N[C@@H](CO)C(=O)NCC(=O)N[C@@H](CO)C(N)=O [Example 793] | 3.79 |  | 3.19 |  | 0.834 |  | 1660 | 559 |  |  | 
5 | H-Y[Aib]QGTFTSDFS[Orn][αMeL]LD[Orn]K([γGlu-γGlu-C18 diacid])AQ[Aib]AFIE[αMe4Pal]LLAGGPSSGAPPPEGSEE-NH2 [Example 1053] | 10.4 | 19.3 | 6.2 | 3470 | 0.123 |  |  |  |  |  | 
6 | CC[C@H](C)[C@H](NC(=O)[C@H](Cc1ccccc1)NC(=O)[C@H](C)NC(=O)C(C)(C)NC(=O)[C@H](CCC(N)=O)NC(=O)[C@H](C)NC(=O)[C@H](CCCCNC(=O)CC[C@H](NC(=O)CC[C@H](NC(=O)CCCCCCCCCCCCCCCCC(=O)O)C(=O)O)C(=O)O)NC(=O)[C@H](CCCCN)NC(=O)[C@H](CC(=O)O)NC(=O)[C@H](CC(C)C)NC(=O)[C@H](CC(C)C)NC(=O)[C@@H](NC(=O)[C@H](CO)NC(=O)[C@H](Cc1ccc(O)cc1)NC(=O)[C@H](CC(=O)O)NC(=O)[C@H](CO)NC(=O)[C@@H](NC(=O)[C@](C)(Cc1ccccc1F)NC(=O)[C@@H](NC(=O)CNC(=O)[C@H](CCC(N)=O)NC(=O)C(C)(C)NC(=O)[C@@H](N)Cc1ccc(O)cc1)[C@@H](C)O)[C@@H](C)O)[C@@H](C)CC)C(=O)N[C@@H](CCC(=O)O)C(=O)N[C@@H](Cc1ccc(O)cc1)C(=O)N[C@@H](CC(C)C)C(=O)N[C@@H](CCC(=O)O)C(=O)N[C@@H](CCC(=O)O)C(=O)NCC(=O)NCC(=O)N1CCC[C@H]1C(=O)N[C@@H](CO)C(=O)N[C@@H](CO)C(=O)NCC(=O)N[C@@H](CCC(=O)O)C(=O)N1CCC[C@H]1C(=O)N1CCC[C@H]1C(=O)N1CCC[C@H]1C(=O)N[C@@H](CO)C(N)=O [Example 432] |  |  |  |  |  |  | 384 | 41.7 | 1.6 | 0.431 | 0.0297
7 | H-Y[Aib]QGTFTSD[4Pal]S[Orn][αMeL]LD[Orn]K([Glu-γGlu-C18 diacid])AQ[αMe4Pal]AFIEYLIAGGPSSGAPPPSGSEE-NH2 [Example 1061] | 17.3 |  | 4.56 |  | 0.656 | 55.6 | 2910 |  |  |  | 
8 | H-Y[Aib]QGTFTSD[4Pal]S[Dab][αMeL]LD[Orn]K([γGlu-γGlu-C18 diacid])AQ[αMe4Pal]AFIE[αMe4Pal]LLAGGPSSGAPPPEGSEE-NH2 [Example 1055] | 1.88 | 78.9 | 14.6 | 450 | 0.366 |  |  |  |  |  | 
9 | H-Y[Aib]QGTFTSD[4Pal]S[Dab][αMeL]LDKK([AEEA-γGlu-C18 diacid])AQ[Aib]AFIEYLIE[Aib]GPSSGAPPPSGS-NH2 [Example 803] | 9.75 |  | 2.02 |  | 0.232 |  |  |  |  |  | 
10 | H-Y[Aib]QGTFTSD[4Pal]SR[αMeL]LDKK([AEEA-γGlu-C18 diacid])AQ[Aib]AFIEYLIE[Aib]SPSSGAPPPSGS-NH2 [Example 807] | 12.4 |  | 1.72 |  | 0.108 |  |  |  |  |  | 
11 | H-Y[Aib]QGTFTSD[4Pal]S[Orn][αMeL]LD[Orn]K([γGlu-γGlu-C18 diacid])AQ[αMe4Pal]AFIEYLIAGGPSSGAPPPSGSEE-NH2 [Example 1059] | 7.52 |  | 4.61 |  | 0.468 | 48.9 | 748 |  |  |  | 
12 | H-Y[Aib]QGT[αMePhe(2-F)]TSD[4Pal]SILLDKK([γGlu-γGlu-C18 diacid])AQ[Aib]AFIEYLTEGGPSSGAPPPSGTE-NH2 [Example 554] |  |  |  |  |  | 4.08 | 946 |  | 6.83 | 0.423 | 0.0323
13 | H-Y[Aib]QGTFTSD[4Pal]SQ[αMeL]LD[Orn]K([γGlu-γGlu-C18 diacid])AQ[αMe4Pal]AFIEYLLAGGPSSGAPPPSGSEE-NH2 [Example 1056] | 3.98 |  | 4.25 |  | 0.0929 | 29.6 | 1650 |  |  |  | 
14 | Y[Aib]QGTFTSD[4Pal]SQ[αMeL]LD[Orn]K([dE-γGlu-C18 diacid])AQ[αMe4Pal]AFIE[αMeY]LLEGGPSSGAPPPSGSEE-NH2 [Example 1058] | 5.8 |  | 4.48 |  | 0.139 | 45.6 | 1450 |  |  |  | 
15 | H-Y[Aib]QGTFTSD[4Pal]S[Orn][αMeL]LDKK([Glu-γGlu-C18 diacid])AQ[αMe4Pal]AFIEYLIAGGPSSGAPPPSGSEE-NH2 [Example 1060] | 9.08 |  | 2.85 |  | 0.223 | 44.7 | 4900 |  |  |  | 
16 | H-Y[Aib]QGTFTSD[4Pal]S[Orn][αMeL]LD[Orn]K([Glu-Glu-γGlu-C18 diacid])AQ[αMe4Pal]AFIEYLIAGGPSSGAPPPSGSEE-NH2 [Example 1062] | 8.77 |  | 7.75 |  | 0.726 | 67.5 | 2380 |  |  |  | 
